These compounds were tested against HSP90 (Homo sapiens, UniProt P07900) (assay: HSP90 inhibition (HSP90 IC50)).
Format: biochemical

Row | Compound | IC50 [nM]
1 | COc1cc(C(=O)N[C@H]2C[C@H]3CC[C@@H](C2)N3c2ccc(C(N)=O)cn2)ccc1CO [6-[3-endo-({[4-(hydroxymethyl)-3-(methyloxy)phenyl]carbonyl}amino)-8-azabicyclo[3.2.1]oct-8-yl]pyridine-3-carboxamide] | 500 to 999
2 | O=C(NCc1ccccc1)c1ccc(N2[C@@H]3CC[C@H]2C[C@@H](NC(=O)c2ccc(CO)cc2)C3)nc1 [6-[3-endo-({[4-(hydroxymethyl)phenyl]carbonyl}amino)-8-azabicyclo[3.2.1]oct-8-yl]-N-(phenylmethyl)pyridine-3-carboxamide] | < 500
3 | O=C(NCc1cccnc1)c1ccc(N2[C@@H]3CC[C@H]2C[C@@H](NC(=O)c2ccc(CO)cc2)C3)nc1 [6-[3-endo-({[4-(hydroxymethyl)phenyl]carbonyl}amino)-8-azabicyclo[3.2.1]oct-8-yl]-N-(pyridin-3-ylmethyl)pyridine-3-carboxamide] | < 500
4 | Cc1cnc(CNC(=O)c2ccc(N3[C@@H]4CC[C@H]3C[C@@H](NC(=O)c3ccc(CO)cc3)C4)nc2)cn1 [6-[3-endo-({[4-(hydroxymethyl)phenyl]carbonyl}amino)-8-azabicyclo[3.2.1]oct-8-yl]-N-[(5-methylpyrazin-2-yl)methyl]pyridine-3-carboxamide] | < 500
5 | NC(=O)c1ccc(N2[C@@H]3CC[C@H]2C[C@@H](NC(=O)c2ccc(CO)cc2)C3)nc1 [6-[3-endo-({[4-(hydroxymethyl)phenyl]carbonyl}amino)-8-azabicyclo[3.2.1]oct-8-yl]pyridine-3-carboxamide] | < 500
6 | C[C@H](NC(=O)c1ccc(N2C3CCC2CC(NC(=O)c2cccc(N[C@H]4CC[C@H](O)CC4)c2)C3)nc1)c1ccc(N2CCN(C)CC2)cc1 (stereo partly drawn) [6-{3-endo-[({3-[(4-hydroxycyclohexyl)amino]phenyl}carbonyl)amino]-8-azabicyclo[3.2.1]oct-8-yl}-N-{(1S)-1-[4-(4-methylpiperazin-1-yl)phenyl]ethyl}pyridine-3-carboxamide] | 2000 to 10000
7 | N=C(N)c1ccc(C(=O)N[C@H]2C[C@H]3CC[C@@H](C2)N3c2ccc(C(=O)NCc3ccccc3)cn2)cc1 [6-{3-endo-[({4-[amino(imino)methyl]phenyl}carbonyl)amino]-8-azabicyclo[3.2.1]oct-8-yl}-N-(phenylmethyl)pyridine-3-carboxamide] | 2000 to 10000
8 | COc1ccc([C@H](NC(=O)c2ccc(N3C4CCC3CC(NC(=O)c3cccc(OC)c3C)C4)nc2)C(=O)O)cc1 (stereo partly drawn) [(2S)-[({6-[3-endo-({[2-methyl-3-(methyloxy)phenyl]carbonyl}amino)-8-azabicyclo[3.2.1]oct-8-yl]pyridin-3-yl}carbonyl)amino][4-(methyloxy)phenyl]ethanoic acid] | 1000 to 2000
9 | CCC(COC)Nc1cc(C(=O)N[C@H]2C[C@H]3CC[C@@H](C2)N3c2ccc(C(C)=O)cn2)ccc1C(N)=O (stereo partly drawn) [N4-(8-(5-acetylpyridin-2-yl)-8-azabicyclo[3.2.1]oct-3-endo-yl]-2-({1-[(methyloxy)methyl]propyl}amino) benzene-1,4-dicarboxamide] | < 500
10 | CC(=O)c1ccc(N2[C@@H]3CC[C@H]2C[C@@H](NC(=O)c2ccc(C(N)=O)c(NCC4CCCNC4)c2)C3)nc1 (stereo partly drawn) [N4-(8-(5-acetylpyridin-2-yl)-8-azabicyclo[3.2.1]oct-3-endo-yl]-2-[(piperidin-3-ylmethyl)amino]benzene-1,4-dicarboxamide] | < 500
11 | CC(C)[C@@H](C)Nc1cc(C(=O)NC2CC3CCC(C2)N3c2ccc(C(=O)C3CC3)cn2)ccc1C(N)=O (stereo partly drawn) [N4-(8-[5-(cyclopropylcarbonyl)pyridin-2-yl]-8-azabicyclo[3.2.1]oct-3-endo-yl)-2-{[(1R)-1,2-dimethylpropyl]amino}benzene-1,4-dicarboxamide] | < 500
12 | NC(=O)c1ccc(C(=O)NC2CC3CCC(C2)N3c2ccc(C(=O)NC3CCCC3)cn2)cc1N[C@H]1CC[C@H](O)CC1 (stereo partly drawn) [N4-(8-{5-((cyclopentylamino)carbonyl]pyridin-2-yl}-8-azabicyclo[3.2.1]oct-3-endo-yl)-2-[(4-trans-hydroxycyclohexyl)amino]benzene-1,4-dicarboxamide] | < 500
13 | NC(=O)c1ccc(C(=O)NC2CC3CCC(C2)N3c2ccc(C(=O)NC3CCCC3)cn2)cc1NCC1CC1 (stereo not drawn) [N4-(8-{5-[(cyclopentylamino)carbonyl]pyridin-2-yl}-8-azabicyclo[3.2.1]oct-3-endo-yl)-2-[(cyclopropylmethyl)amino]benzene-1,4-dicarboxamide] | < 500
14 | CS(=O)(=O)CCNc1cc(C(=O)N[C@H]2C[C@H]3CC[C@@H](C2)N3c2ccc(C(=O)NC3CCCC3)cn2)ccc1C(N)=O [N4-(8-{5-[(cyclopentylamino)carbonyl]pyridin-2-yl}-8-azabicyclo[3.2.1]oct-3-endo-yl)-2-{[2-(methylsulfonyl)ethyl]amino}benzene-1,4-dicarboxamide] | < 500
15 | C[C@H](NC(=O)c1ccc(N2C3CCC2CC(NC(=O)c2ccc(C(N)=O)c(NCCN4CCOCC4)c2)C3)nc1)c1ccc(N2CCN(C)CC2)cc1 (stereo partly drawn) [N4-(8-{5-[({(1S)-1-[4-(4-methylpiperazin-1-yl)phenyl]ethyl}amino)carbonyl]pyridin-2-yl}-8-azabicyclo[3.2.1]oct-3-endo-yl)-2-[(2-morpholin-4-ylethyl)amino]benzene-1,4-dicarboxamide] | < 500
16 | C[C@H](NC(=O)c1ccc(N2C3CCC2CC(NC(=O)c2ccc(C(N)=O)c(NCCS(C)(=O)=O)c2)C3)nc1)c1ccc(N2CCN(C)CC2)cc1 (stereo partly drawn) [N4-(8-{5-[({(1S)-1-[4-(4-methylpiperazin-1-yl)phenyl]ethyl}amino)carbonyl]pyridin-2-yl}-8-azabicyclo[3.2.1]oct-3-endo-yl)-2-{[2-(methylsulfonyl)ethyl]amino}benzene-1,4-dicarboxamide] | < 500
17 | COc1cc(Nc2cc(C(=O)NC3CC4CCC(C3)N4c3ccc(C(=O)N[C@@H](C)c4ccc(N5CCN(C)CC5)cc4)cn3)ccc2C(N)=O)cc(OC)c1OC (stereo partly drawn) [N4-(8-{5-[({(1S)-1-[4-(4-methylpiperazin-1-yl)phenyl]ethyl}amino)carbonyl]pyridin-2-yl}-8-azabicyclo[3.2.1]oct-3-endo-yl)-2-{[3,4,5-tris(methyloxy)phenyl]amino}benzene-1,4-dicarboxamide] | < 500
18 | C[C@H](NC(=O)c1ccc(N2[C@@H]3CC[C@H]2C[C@@H](NC(=O)c2ccc(C(N)=O)c(NC4CCN(S(C)(=O)=O)CC4)c2)C3)nc1)c1ccc(N2CCN(C)CC2)cc1 [N4-(8-{5-[({(1S)-1-[4-(4-methylpiperazin-1-yl)phenyl]ethyl}amino)carbonyl]pyridin-n-2-yl}-8-azabicyclo[3.2.1]oct-3-endo-yl)-2-{[1-(methylsulfonyl)piperidin-4-yl]amino}benzene-1,4-dicarboxamide] | < 500
19 | CC(=O)c1ccc(N2[C@@H]3CC[C@H]2C[C@@H](NC(=O)c2ccc(C(N)=O)c(NCC(C)(C)C)c2)C3)nc1 [N4-[8-(5-acetylpyridin-2-y)-8-azabicyclo[3.2.1]oct-3-endo-yl]-2-[(2,2-dimethylpropyl)amino]benzene-1,4-dicarboxamide] | < 500
20 | CCC(C)Nc1cc(C(=O)N[C@H]2C[C@H]3CC[C@@H](C2)N3c2ccc(C(C)=O)cn2)ccc1C(N)=O (stereo partly drawn) [N4-[8-(5-acetylpyridin-2-yl)-8-azabicyclo[3.2.1]oct-3-endo-yl]-2-((1-methylpropyl)amino]benzene-1,4-dicarboxamide] | < 500
21 | CCCCNc1cc(C(=O)N[C@H]2C[C@H]3CC[C@@H](C2)N3c2ccc(C(C)=O)cn2)ccc1C(N)=O [N4-[8-(5-acetylpyridin-2-yl)-8-azabicyclo[3.2.1]oct-3-endo-yl]-2-(butylamino)benzene-1,4-dicarboxamide] | < 500
22 | CC(=O)c1ccc(N2[C@@H]3CC[C@H]2C[C@@H](NC(=O)c2ccc(C(N)=O)c(NC4CCCC4)c2)C3)nc1 [N4-[8-(5-acetylpyridin-2-yl)-8-azabicyclo[3.2.1]oct-3-endo-yl]-2-(cyclopentylamino)benzene-1,4-dicarboxamide] | < 500
23 | CC(=O)c1ccc(N2[C@@H]3CC[C@H]2C[C@@H](NC(=O)c2ccc(C(N)=O)c(NC4CC4)c2)C3)nc1 [N4-[8-(5-acetylpyridin-2-yl)-8-azabicyclo[3.2.1]oct-3-endo-yl]-2-(cyclopropylamino)benzene-1,4-dicarboxamide] | < 500
24 | CC(=O)c1ccc(N2[C@@H]3CC[C@H]2C[C@@H](NC(=O)c2ccc(C(N)=O)c(NC4CCCCC4)c2)C3)nc1 [N4-[8-(5-acetylpyridin-2-yl)-8-azabicyclo[3.2.1]oct-3-endo-yl]-2-(cyctohexylamino)benzene-1,4-dicarboxamide] | < 500
25 | CCNc1cc(C(=O)N[C@H]2C[C@H]3CC[C@@H](C2)N3c2ccc(C(C)=O)cn2)ccc1C(N)=O [N4-[8-(5-acetylpyridin-2-yl)-8-azabicyclo[3.2.1]oct-3-endo-yl]-2-(ethylamino)benzene-1,4-dicarboxamide] | < 500
26 | CC(=O)c1ccc(N2[C@@H]3CC[C@H]2C[C@@H](NC(=O)c2ccc(C(N)=O)c(Nc4ccccc4)c2)C3)nc1 [N4-[8-(5-acetylpyridin-2-yl)-8-azabicyclo[3.2.1]oct-3-endo-yl]-2-(phenylamino)benzene-1,4-dicarboxamide] | < 500
27 | CC(=O)c1ccc(N2[C@@H]3CC[C@H]2C[C@@H](NC(=O)c2ccc(C(N)=O)c(NN4CCCCC4)c2)C3)nc1 [N4-[8-(5-acetylpyridin-2-yl)-8-azabicyclo[3.2.1]oct-3-endo-yl]-2-(piperidin-1-ylamino)benzene-1,4-dicarboxamide] | < 500
28 | CC(=O)c1ccc(N2[C@@H]3CC[C@H]2C[C@@H](NC(=O)c2ccc(C(N)=O)c(NC4CCNCC4)c2)C3)nc1 [N4-[8-(5-acetylpyridin-2-yl)-8-azabicyclo[3.2.1]oct-3-endo-yl]-2-(piperidin-4-ylamino)benzene-1,4-dicarboxamide] | < 500
29 | CCCNc1cc(C(=O)N[C@H]2C[C@H]3CC[C@@H](C2)N3c2ccc(C(C)=O)cn2)ccc1C(N)=O [N4-[8-(5-acetylpyridin-2-yl)-8-azabicyclo[3.2.1]oct-3-endo-yl]-2-(propylamino)benzene-1,4-dicarboxamide] | < 500
30 | CC(=O)c1ccc(N2[C@@H]3CC[C@H]2C[C@@H](NC(=O)c2ccc(C(N)=O)c(NC4CCOCC4)c2)C3)nc1 [N4-[8-(5-acetylpyridin-2-yl)-8-azabicyclo[3.2.1]oct-3-endo-yl]-2-(tetrahydro-2H-pyran-4-ylamino)benzene-1,4-dicarboxamide] | < 500

Source: US8012956B2, “Tropane compounds” (Exelixis, Inc., priority 2007, dated 2011)
